Measured values reported in ChEMBL document CHEMBL5137097, “A Warhead Substitution Study on the Coronavirus Main Protease Inhibitor Nirmatrelvir” (ACS Med Chem Lett, 2022).

How the values were obtained:
[1] = Antiviral activity against Human coronavirus 229E infected in human MRC5 cells assessed as […] cell viability measured after 4 days by CellTiter-Glo luminescence assay; assay type: functional, cell-based; conditions: MRC5, 96 h
[2] = target: Replicase polyprotein 1ab (Severe acute respiratory syndrome coronavirus 2, UniProt P0DTD1); experiment: Inhibition of full length SARS-CoV-2 3CLpro expressed in Escherichia coli BL21 (DE3) cells using (DABCYL)KTSAVLQSGFRKM(Glu)(EDANS) peptide as substrate preincubated for 30 mins followed by substrate addition and measured after 1.5 hrs by FRET assay
[3] = target: Replicase polyprotein 1ab (Human coronavirus 229E, UniProt P0C6X1); experiment: Inhibition of full length C terminal His-tagged Human coronavirus 229E 3CLpro expressed in Escherichia coli Rosetta (DE3) cells using (DABCYL)KTSAVLQSGFRKM(Glu)(EDANS) peptide as substrate preincubated for 30 mins followed by substrate addition and measured after 1.5 hrs by FRET assay
Chain of Replicase polyprotein 1ab (Human coronavirus 229E, UniProt P0C6X1) (P0C6X1 2966-3267 limits assumed): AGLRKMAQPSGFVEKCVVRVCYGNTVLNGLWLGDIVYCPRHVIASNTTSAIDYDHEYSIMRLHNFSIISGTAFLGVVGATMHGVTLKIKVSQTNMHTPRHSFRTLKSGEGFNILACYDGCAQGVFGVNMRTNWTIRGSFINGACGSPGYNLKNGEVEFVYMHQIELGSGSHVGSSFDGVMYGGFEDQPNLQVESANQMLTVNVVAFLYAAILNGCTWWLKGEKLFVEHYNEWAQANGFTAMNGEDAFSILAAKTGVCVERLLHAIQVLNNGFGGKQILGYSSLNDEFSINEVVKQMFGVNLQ

Structure (SMILES)	EC50 [1] [nM]	IC50 [2] [nM]	IC50 [3] [nM]
CC(C)(C)[C@H](NC(=O)C(F)(F)F)C(=O)N1C[C@H]2[C@@H]([C@H]1C(=O)N[C@H](C#N)C[C@@H]1CCNC1=O)C2(C)C	212		
CC(C)(C)[C@H](NC(=O)C(F)(F)F)C(=O)N1C[C@H]2[C@@H]([C@H]1C(=O)N[C@@H](C[C@@H]1CCNC1=O)C(=O)COCc1ccccc1)C2(C)C	513	27	467
CC(C)(C)[C@H](NC(=O)C(F)(F)F)C(=O)N1C[C@H]2[C@@H]([C@H]1C(=O)N[C@@H](C[C@@H]1CCNC1=O)C(N)=O)C2(C)C		> 100000	> 100000
CC(C)(C)[C@H](NC(=O)C(F)(F)F)C(=O)N1C[C@H]2[C@@H]([C@H]1C(=O)N[C@@H](C[C@@H]1CCNC1=O)C(=O)C(=O)NC1CC1)C2(C)C	2360	19	70
COC(=O)[C@H](C[C@@H]1CCNC1=O)NC(=O)[C@@H]1[C@@H]2[C@H](CN1C(=O)[C@@H](NC(=O)C(F)(F)F)C(C)(C)C)C2(C)C		> 100000	> 100000
CC(C)(C)[C@H](NC(=O)C(F)(F)F)C(=O)N1C[C@H]2[C@@H]([C@H]1C(=O)NCCC1CCNC1=O)C2(C)C (some centres not stated)		> 100000	> 100000
CC(C)(C)[C@H](NC(=O)C(F)(F)F)C(=O)N1C[C@H]2[C@@H]([C@H]1C(=O)N[C@H](CO)C[C@@H]1CCNC1=O)C2(C)C		> 100000	> 100000
CC(C)(C)[C@H](NC(=O)C(F)(F)F)C(=O)N1C[C@H]2[C@@H]([C@H]1C(=O)N[C@H](C=O)C[C@@H]1CCNC1=O)C2(C)C	770	10	16
CC(C)(C)[C@H](NC(=O)C(F)(F)F)C(=O)N1C[C@H]2[C@@H]([C@H]1C(=O)N[C@@H](C[C@@H]1CCNC1=O)C(=O)CO)C2(C)C	193		13
CC(C)(C)[C@H](NC(=O)C(F)(F)F)C(=O)N1C[C@H]2[C@@H]([C@H]1C(=O)N[C@@H](C[C@@H]1CCNC1=O)C(=O)c1nc3ccccc3s1)C2(C)C	242		239
